Measurements reported in ChEMBL document CHEMBL3525920, “CYP4F enzymes are responsible for the elimination of fingolimod (FTY720), a novel treatment of relapsing multiple sclerosis” (Drug Metab Dispos, 2011).

Legend:
Type in all cases: ADME
Liver microsome [1] = experiment: Drug metabolism in human liver microsomes assessed as total metabolite formation at 1 to 50 uM after 20 mins by HPLC-RA analysis in presence of CYP2C9 inhibitor sulfaphenazole
Cytochrome P450 2C19 = Cytochrome P450 2C19 (Homo sapiens, UniProt P33261); experiment: Activity at CYP2C19 in human liver microsomes isolated from donors assessed as metabolite formation after 24 mins by HPLC-RA analysis; settings: 0.4 h
Cytochrome P450 2C19, sequence (P33261 whole entry): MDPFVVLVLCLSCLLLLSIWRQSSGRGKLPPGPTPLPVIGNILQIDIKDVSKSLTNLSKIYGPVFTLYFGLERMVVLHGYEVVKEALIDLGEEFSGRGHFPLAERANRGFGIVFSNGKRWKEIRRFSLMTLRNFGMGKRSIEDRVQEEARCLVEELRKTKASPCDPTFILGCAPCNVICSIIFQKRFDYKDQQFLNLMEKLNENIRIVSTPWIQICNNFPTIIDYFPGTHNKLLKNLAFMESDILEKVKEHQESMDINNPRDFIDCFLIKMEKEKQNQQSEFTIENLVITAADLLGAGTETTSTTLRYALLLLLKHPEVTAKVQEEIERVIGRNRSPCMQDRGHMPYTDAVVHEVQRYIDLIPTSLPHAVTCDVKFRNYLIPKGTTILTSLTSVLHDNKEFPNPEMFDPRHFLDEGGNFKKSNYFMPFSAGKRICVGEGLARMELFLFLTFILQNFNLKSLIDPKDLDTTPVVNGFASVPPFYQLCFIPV

Cytochrome P450 3A4 = Cytochrome P450 3A4 (Homo sapiens, UniProt P08684); experiment: Activity at human recombinant CYP3A4 expressed in baculovirus-infected BTI-TN-5B1-4 insect cell microsomes assessed as metabolite formation at 5 to 100 uM after 30 mins by HPLC-RA analysis; settings: bti-tn-5b1-4, 0.5 h
Cytochrome P450 3A4, sequence (P08684 whole entry): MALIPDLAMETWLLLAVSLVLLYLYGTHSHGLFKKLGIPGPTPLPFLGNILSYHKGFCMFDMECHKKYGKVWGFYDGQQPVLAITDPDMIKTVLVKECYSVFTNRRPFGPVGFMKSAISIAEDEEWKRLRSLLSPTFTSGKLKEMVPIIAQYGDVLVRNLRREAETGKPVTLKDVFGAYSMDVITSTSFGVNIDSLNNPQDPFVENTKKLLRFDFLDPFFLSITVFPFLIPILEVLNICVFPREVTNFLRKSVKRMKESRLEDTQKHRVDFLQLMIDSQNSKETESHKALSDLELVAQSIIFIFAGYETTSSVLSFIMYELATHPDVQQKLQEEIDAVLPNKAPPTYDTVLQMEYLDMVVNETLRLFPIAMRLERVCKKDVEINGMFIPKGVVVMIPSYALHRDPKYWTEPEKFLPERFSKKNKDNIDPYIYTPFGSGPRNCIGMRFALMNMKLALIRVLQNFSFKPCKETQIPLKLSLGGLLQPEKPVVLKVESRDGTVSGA

Liver microsome [2] = experiment: Drug metabolism in human liver microsomes assessed as total metabolite formation at 1 to 50 uM after 20 mins by HPLC-RA analysis in presence of irreversible CYP3A inhibitor azamulin

Drug metabolism (Liver microsome [1]): metabolite_detected
Drug metabolism (Cytochrome P450 2C19): metabolite_not_detected
Drug metabolism (Cytochrome P450 3A4): metabolite_detected
Drug metabolism (Liver microsome [2]): metabolite_not_detected
Compound: CCCCCCCCc1ccc(CC[14C](N)(CO)CO)cc1.Cl
